The values that follow come from patent US12441704B2, “Compounds active towards nuclear receptors” (NUEVOLUTION A/S, priority 2019, dated 2025).

Structures are written as SMILES.

One experiment relates to IL-17A secretion in activated PBMCs. The experiment can be described thus: IL-17A secretion in activated PBMCs. The format is cell-based, human. The conditions noted are these: Homo sapiens, PBMC, 48 h, human PBMCs stimulated with CD3/CD28 Dynabeads for 48 h; absolute IC50. On the procedure: Heparin-treated whole blood from healthy human volunteers was supplied from Hospital de Sant Pau (Barcelona) under the approval of the local ethical review board for human studies (Hospital de Sant Pau, Barcelona, Spain). Human peripheral blood mononuclear cells (PBMCs) were isolated from healthy human volunteers by density gradient centrifugation using the Ficoll-Paque (GE Healthcare). […] Cells were seeded in 384-well plate (DiscoverX), at 40,000 cells per well and cultured 2 h at 37° C. and 5% CO2.
Dose-response curves with compounds were prepared using a 5-fold serial dilution (10 concentrations) in 100% DMSO and further diluted 100-fold in culture medium. Compound solutions (5 μL) were added to the plate containing cells (final DMSO concentration of 0.1%) and incubated for 30 min. Then, cells were stimulated with CD3/CD28 Dynabeads (ThermoFisher, at a bead-to-cell ratio of 1:1) for 48 h at 37° C. and 5% CO2.
IL-17A levels in supernatant were determined by immunoassay using hIL17A QBeads (Intellicyt) and by fluorescence analysis in iQue flow cytometer following the manufacturer's instructions. Inhibition of IL-17A secretion was calculated using the following formula: inhibition=100*[1−[(x−mean basal condition)/(mean top condition−mean basal condition)]]. Activated DMSO-treated cells were used as top condition and activated GNE09461 (10 μM)-treated cells as basal condition.
By IC50 is commonly meant the point on the concentration scale where inhibition reaches its midpoint. A low value points to inhibition by little substance. `NC(=O)CN1CC[C@@H](CNc2ncnc(N(Cc3ccc(OC(F)F)cc3F)C3CC3)c2F)[C@H](O)C1` (racemic) [Example A7-42, rac-2-((3R,4R)-4-(((6-(cyclopropyl(4-(difluoromethoxy)-2-fluorobenzyl)amino)-5-fluoropyrimidin-4-yl)amino)methyl)-3-hydroxypiperidin-1-yl)acetamide] registered a half-inhibitory concentration (IC50) of 0.2 µM. On the same count and under the same terms, the value for `CCN(Cc1ccc(C(F)(F)F)cc1)c1ncnc(NC[C@@H]2CCN(C(C)(C)C(N)=O)C[C@H]2O)c1F` (relative stereo) [Example A7-57, rel-2-((3R,4R)-4-(((6-(ethyl(4-(trifluoromethyl)benzyl)amino)-5-fluoropyrimidin-4-yl)amino)methyl)-3-hydroxypiperidin-1-yl)-2-methylpropanamide] was 0.039 µM; that for `[2H]C([2H])([2H])N(Cc1ccc(C(F)(F)F)cc1)c1ncnc(NC[C@@H]2CCN(CC(N)=O)C[C@H]2O)c1F` (racemic) [Example A7-60, rac-2-((3R,4R)-4-(((5-fluoro-6-((methyl-d3)(4-(trifluoromethyl)benzyl)amino)pyrimidin-4-yl)amino)methyl)-3-hydroxypiperidin-1-yl)acetamide] was 0.087 µM. On to `NC(=O)CN1CC[C@@H](CNc2ncnc(N(Cc3ccc(C(F)(F)F)cc3)C3CC3)c2F)[C@H](O)C1` (stereo in doubt) [Example A7-01, rac-2-((3R,4R)-4-(((6-(Cyclopropyl(4-(trifluoromethyl)benzyl)amino)-5-fluoropyrimidin-4-yl)amino)methyl)-3-hydroxypiperidin-1-yl)acetamide], for which 0.0087 µM corresponded to half-maximal inhibition (IC50). Consider `NC(=O)CN1CC[C@@H](CNc2ncnc(N(Cc3ccc(-n4cccn4)cc3)C3CC3)c2F)[C@H](O)C1` (racemic) [Example A7-86, rac-2-((3R,4R)-4-(((6-((4-(1H-pyrazol-1-yl)benzyl)(cyclopropyl)amino)-5-fluoropyrimidin-4-yl)amino)methyl)-3-hydroxypiperidin-1-yl)acetamide], for which the IC50 worked out at 0.055 µM.

Staying with this experiment, now noted: human PBMCs stimulated with CD3/CD28 Dynabeads for 48 h; absolute IC50.
`Cn1cc(-c2ccc(CN(c3ncnc(NC[C@]4(O)CCN(CC(N)=O)C[C@H]4O)c3F)C3CC3)c(F)c2)cn1` (single isomer, unassigned) [Example D5-05-1] returned an IC50 of 0.023 µM.

For the next experiment, the target named is T1, RORγ ligand-binding domain fused to Gal4 (Homo sapiens, UniProt P51449).
T1 construct: Gal4 (galactose-responsive transcription factor); expressed in transfected cells; host or cells: HEK293
T1 sequence (P51449 269-508 limits assumed): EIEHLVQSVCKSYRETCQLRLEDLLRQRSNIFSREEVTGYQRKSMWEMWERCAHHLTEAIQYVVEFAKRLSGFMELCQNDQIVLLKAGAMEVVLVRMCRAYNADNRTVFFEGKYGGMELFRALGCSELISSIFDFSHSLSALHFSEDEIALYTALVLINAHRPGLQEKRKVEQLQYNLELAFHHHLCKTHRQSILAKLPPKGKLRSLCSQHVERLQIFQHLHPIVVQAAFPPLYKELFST
The experiment can be described thus: RORγ Reporter Assay (Gal4). The format is cell-based. The conditions noted are these: HEK293 cells co-transfected with RORγ LBD-Gal4 and luciferase reporter; 24 h incubation; absolute EC50; read-out: EC50. On the procedure:
The HEK293 cell line is co-transfected transiently with two plasmids, one with the RORγ ligand-binding domain fused to galactose-responsive transcription factor (Gal4), and the other with the luciferase reporter gene and Gal binding sites (UAS). This construction allows to determine the RORγ activity in a cellular system through the measurement of luminescence.
A suspension of RORγ reporter cells was dispensed into plates and cultured 2 h at 37° C. and 5% CO2. Media formulation consisted in DMEM/F-12 medium (Gibco) supplemented with 10% heat inactivated FBS (Sigma-Aldrich), non-essential aminoacids (Sigma-Aldrich), 2 mM Glutamax (Gibco) and 100 U/mL penicillin (Sigma-Aldrich). Dose-response curves with compounds were prepared in 100% DMSO and further diluted 100-fold in culture medium. Compound solutions were added to the plate containing cells (final DMSO concentration of 0.1%) and incubated for 24 h at 37° C. and 5% CO2. Luciferase detection reagent was added to each well, and relative light units (RLUs) were quantified from each assay well using a plate reading luminometer.
Values of average RLU±S.D. were computed for all treatment sets, followed by the calculations of percent-reduction of RORγ activity in response to respective test compound. The following formula was used: activity=100*[1−[x test compound/average vehicle] where the theoretical minimum reduction (0% reduction).
(In a reporter assay the amount or activity of a reporter protein is the signal.)
As a reminder, the EC50 is the concentration at which the effect is half-maximal. With `NC(=O)CN1CC[C@@H](CNc2ncnc(N(Cc3ccc(OC(F)F)cc3F)C3CC3)c2F)[C@H](O)C1` (racemic) [Example A7-42, rac-2-((3R,4R)-4-(((6-(cyclopropyl(4-(difluoromethoxy)-2-fluorobenzyl)amino)-5-fluoropyrimidin-4-yl)amino)methyl)-3-hydroxypiperidin-1-yl)acetamide], the EC50 was 0.018 µM. With `NC(=O)CN1CC[C@H](CNc2ncnc(N(Cc3cnc(C(F)(F)F)nc3)C3CCC3)c2F)[C@@H](O)C1` (racemic) [Example A7-18, rac-2-((3R,4R)-4-(((6-(cyclobutyl((2-(trifluoromethyl)pyrimidin-5-yl)methyl)amino)-5-fluoropyrimidin-4-yl)amino)methyl)-3-hydroxypiperidin-1-yl)acetamide], the EC50 worked out at 0.13 µM. Still for that read-out and setting: the result for `COC(=O)C1(CNc2ncnc(N(Cc3ccc(C(F)(F)F)cc3)C3CC3)c2F)CCN(CC(N)=O)CC1` [Example A7-08, methyl 1-(2-amino-2-oxoethyl)-4-(((6-(cyclopropyl(4-(trifluoromethyl)benzyl)amino)-5-fluoropyrimidin-4-yl)amino)methyl)piperidine-4-carboxylate] reads 0.015 µM. Same read-out and setting: the result for `NC(=O)CN1CC[C@@H](CNc2ncnc(N(Cc3ccc(C(F)(F)F)cc3)C3CCC3)c2F)[C@H](O)C1` (stereo in doubt) [Example A7-16, rac-2-((3R,4R)-4-(((6-(cyclobutyl(4-(trifluoromethyl)benzyl)amino)-5-fluoropyrimidin-4-yl)amino)methyl)-3-hydroxypiperidin-1-yl)acetamide] reads 0.019 µM. Still for that read-out and setting: the result for `Cc1ccc(C)c(CN(c2ncnc(NCC3CCN(CC(N)=O)CC3)c2F)C2CC2)c1` [Example A7-47, 2-(4-(((6-(cyclopropyl(2,5-dimethylbenzyl)amino)-5-fluoropyrimidin-4-yl)amino)methyl)piperidin-1-yl)acetamide] reads more than 1 µM; that for `NC(=O)CN1CCC(CNc2ncnc(N(Cc3cccc(-n4cncn4)c3)C3CC3)c2F)CC1` [Example A7-38, 2-(4-(((6-((3-(1H-1,2,4-triazol-1-yl)benzyl)(cyclopropyl)amino)-5-fluoropyrimidin-4-yl)amino)methyl)piperidin-1-yl)acetamide], 0.59 µM. On to `NC(=O)CN1CC[C@@H](CNc2ncnc(N(Cc3ccc(C(F)F)nc3)C3CC3)c2F)[C@H](O)C1` (stereo in doubt) [Example A7-25, rac-2-((3R,4R)-4-(((6-(cyclopropyl((6-(difluoromethyl)pyridin-3-yl)methyl)amino)-5-fluoropyrimidin-4-yl)amino)methyl)-3-hydroxypiperidin-1-yl)acetamide], for which the EC50 was determined as 0.33 µM.

In the case of `NC(=O)CN1CCC(CNc2ncnc(N(Cc3ccc(C(F)(F)F)cc3)C3CC3)c2F)C(C(F)(F)F)C1` (single isomer, unassigned) [Example A7-07-1, 2-(4-(((6-(cyclopropyl(4-(trifluoromethyl)benzyl)amino)-5-fluoropyrimidin-4-yl)amino)methyl)-3-(trifluoromethyl)piperidin-1-yl)acetamide], the EC50 is 0.049 µM. Same read-out and setting: the result for `NC(=O)CN1CCC(CNc2ncnc(N(Cc3ccc(C(F)(F)F)cc3)C3CC3)c2F)C(C(F)(F)F)C1` (single isomer, unassigned) [Example A7-07-2, 2-(4-(((6-(cyclopropyl(4-(trifluoromethyl)benzyl)amino)-5-fluoropyrimidin-4-yl)amino)methyl)-3-(trifluoromethyl)piperidin-1-yl)acetamide] reads 0.093 µM; that for `CC(F)(F)c1ccc(CN(c2ncnc(NC[C@@H]3CCN(CC(N)=O)C[C@H]3O)c2F)C2CC2)cn1` (single isomer, unassigned) [Example A7-29-1], 0.035 µM.

As for `NC(=O)CN1CC[C@@H](CNc2ncnc(N(Cc3ccc(C(F)(F)F)cc3)C3CCC3)c2F)[C@H](O)C1` (single isomer, unassigned) [Example A7-16-1], the EC50 was 0.025 µM. On the same count and under the same terms, the result for `NC(=O)CN1CC[C@H](CNc2ncnc(N(Cc3ccc(C(F)F)nc3)C3CC3)c2F)[C@@H](O)C1` (stereo in doubt) [Example A7-25-2, rel-2-((3R,4R)-4-(((6-(cyclopropyl((6-(difluoromethyl)pyridin-3-yl)methyl)amino)-5-fluoropyrimidin-4-yl)amino)methyl)-3-hydroxypiperidin-1-yl)acetamide] reads 0.32 µM; that for `NC(=O)CN1CCC(CNc2ncnc(N(Cc3ccc(C(F)(F)F)cn3)C3CC3)c2F)CC1` [Example A7-35, 2-(4-(((6-(cyclopropyl((5-(trifluoromethyl)pyridin-2-yl)methyl)amino)-5-fluoropyrimidin-4-yl)amino)methyl)piperidin-1-yl)acetamide], 0.31 µM; that for `CCN(Cc1ccc(C(F)(F)F)cc1)c1ncnc(NC[C@H]2CCN(CC(N)=O)C[C@@H]2O)c1F` (single isomer, unassigned) [Example A7-21-1], 0.0093 µM.

On to `NC(=O)CN1CC[C@](O)(CNc2ncnc(N(Cc3ccccc3F)C3CC3)c2F)[C@@H](O)C1` (relative stereo) [Example D5-10, rel-2-((3R,4R)-4-(((6-(cyclopropyl(2-fluorobenzyl)amino)-5-fluoropyrimidin-4-yl)amino)methyl)-3,4-dihydroxypiperidin-1-yl)acetamide], for which the EC50 is more than 1 µM. Turning to `CCN(Cc1ccc(C(F)(F)F)cc1)c1ncnc(NC[C@@H]2CCN(C(CCO)C(N)=O)C[C@H]2O)c1F` (relative stereo) [Example A7-67, rel-2-((3R,4R)-4-(((6-(ethyl(4-(trifluoromethyl)benzyl)amino)-5-fluoropyrimidin-4-yl)amino)methyl)-3-hydroxypiperidin-1-yl)-4-hydroxybutanamide], the EC50 is 0.043 µM.

With `NC(=O)CN1CCC(CNc2ncnc(N(Cc3ccc4c(c3)OCC(=O)N4)C3CC3)c2F)CC1` [Example A7-37], the EC50 is 0.67 µM.
